We go through four molecules from ChEMBL document CHEMBL1201862, “PubChem BioAssay data set” (2004).

A word on the IC50: it is the midpoint of a concentration-inhibition curve. For orientation: AC50 means the concentration giving half of the maximal activity seen. Usually CC50 stands for the concentration at which the toxic effect on the cells reaches its halfway point.

Active and inactive are the calls of the source. Bounds are passed on as bounds.

The target of experiment [1] is Epstein-Barr nuclear antigen 1 (Epstein-Barr virus (strain B95-8) (HHV-4) (Human herpesvirus 4), UniProt P03211). The experiment can be described thus: inhibition of EBV nuclear antigen 1 DNA binding – biochemical, fluorescence polarization, 1536-well, dose response (AID 2381).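 Further: fluorescence polarization of a Cy5 DNA probe bound by EBNA-1 protein.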 Set-up: species or system human gammaherpesvirus 4. (Polarisation of emitted light reports the rotation of a fluorescent probe.)
Chain of Epstein-Barr nuclear antigen 1 (P03211 whole entry): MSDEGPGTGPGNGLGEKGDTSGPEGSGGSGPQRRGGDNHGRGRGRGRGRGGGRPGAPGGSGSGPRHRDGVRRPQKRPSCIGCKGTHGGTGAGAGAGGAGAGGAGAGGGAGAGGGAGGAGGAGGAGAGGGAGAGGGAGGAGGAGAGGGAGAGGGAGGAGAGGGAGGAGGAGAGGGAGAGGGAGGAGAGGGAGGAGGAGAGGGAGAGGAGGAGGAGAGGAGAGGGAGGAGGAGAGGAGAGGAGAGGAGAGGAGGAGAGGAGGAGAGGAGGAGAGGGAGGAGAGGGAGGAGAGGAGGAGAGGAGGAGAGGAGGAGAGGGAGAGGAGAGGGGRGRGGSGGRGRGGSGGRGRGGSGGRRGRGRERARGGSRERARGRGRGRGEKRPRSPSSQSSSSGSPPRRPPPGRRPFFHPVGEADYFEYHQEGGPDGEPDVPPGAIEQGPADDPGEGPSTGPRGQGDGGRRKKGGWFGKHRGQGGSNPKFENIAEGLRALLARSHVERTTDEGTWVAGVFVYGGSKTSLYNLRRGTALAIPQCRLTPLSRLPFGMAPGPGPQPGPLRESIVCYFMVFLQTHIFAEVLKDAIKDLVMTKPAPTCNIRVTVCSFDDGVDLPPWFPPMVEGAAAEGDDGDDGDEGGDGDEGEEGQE

Experiment [2] deals with Lytic switch protein BZLF1 (Epstein-Barr virus (strain B95-8) (HHV-4) (Human herpesvirus 4), UniProt P03206). The experiment can be described thus: inhibition of BZLF1 ZTA DNA binding – biochemical, fluorescence polarization, Epstein-Barr virus, 1536-well, counter-screen for EBNA-1 inhibitor project, dose response (AID 2377).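 Further: fluorescence polarization of Cy5-labelled ZRE DNA probe bound by purified Zta.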 Details: species or system human gammaherpesvirus 4.
Chain of Lytic switch protein BZLF1 (P03206 whole entry): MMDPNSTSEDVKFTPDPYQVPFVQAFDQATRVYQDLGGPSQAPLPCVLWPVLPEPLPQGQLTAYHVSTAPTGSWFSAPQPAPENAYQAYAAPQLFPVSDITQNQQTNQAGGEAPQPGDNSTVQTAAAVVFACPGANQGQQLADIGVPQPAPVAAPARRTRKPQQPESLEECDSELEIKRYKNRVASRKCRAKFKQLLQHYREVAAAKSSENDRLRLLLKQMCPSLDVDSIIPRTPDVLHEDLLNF

Experiment [3] concerns the target Sphingosine 1-phosphate receptor 4 (Homo sapiens, UniProt O95977). Description: Late-stage fluorescence dose response cell-based assay to identify agonists of the Sphingosine 1-Phosphate Receptor 4 (S1P4): purchased compounds EC50. [Related pubchem assays (depositor defined):AID1509, AID1523, AID1563, AID1686, AID1701, AID1801]. The class given is functional.
The nature of experiment [4]: alpha-synuclein stem-loop luciferase translation blockers – H4 neuroglioma cells, luminescence, confirmation (AID 1988). The class given is functional, cell-based.
A short description of experiment [5]: luciferase reporter signal suppression in cells – H4 neuroglioma cells, luminescence, dose response (AID 1990). In kind it is functional, cell-based. A general note: A reporter such as luciferase makes a cellular process visible.
The test system of experiment [6] is J774.A1. Description: Confirmation of image-based Screening Assay for Inhibitors of Phagocytosis. [Related pubchem assays (depositor defined):AID1029, AID1643]. In kind it is functional, cell-based. Conditions: Mus musculus.
In experiment [7] the target is T1, Protein RecA (Mycobacterium tuberculosis, UniProt P9WHJ3).
T1 sequence (P9WHJ3 whole entry): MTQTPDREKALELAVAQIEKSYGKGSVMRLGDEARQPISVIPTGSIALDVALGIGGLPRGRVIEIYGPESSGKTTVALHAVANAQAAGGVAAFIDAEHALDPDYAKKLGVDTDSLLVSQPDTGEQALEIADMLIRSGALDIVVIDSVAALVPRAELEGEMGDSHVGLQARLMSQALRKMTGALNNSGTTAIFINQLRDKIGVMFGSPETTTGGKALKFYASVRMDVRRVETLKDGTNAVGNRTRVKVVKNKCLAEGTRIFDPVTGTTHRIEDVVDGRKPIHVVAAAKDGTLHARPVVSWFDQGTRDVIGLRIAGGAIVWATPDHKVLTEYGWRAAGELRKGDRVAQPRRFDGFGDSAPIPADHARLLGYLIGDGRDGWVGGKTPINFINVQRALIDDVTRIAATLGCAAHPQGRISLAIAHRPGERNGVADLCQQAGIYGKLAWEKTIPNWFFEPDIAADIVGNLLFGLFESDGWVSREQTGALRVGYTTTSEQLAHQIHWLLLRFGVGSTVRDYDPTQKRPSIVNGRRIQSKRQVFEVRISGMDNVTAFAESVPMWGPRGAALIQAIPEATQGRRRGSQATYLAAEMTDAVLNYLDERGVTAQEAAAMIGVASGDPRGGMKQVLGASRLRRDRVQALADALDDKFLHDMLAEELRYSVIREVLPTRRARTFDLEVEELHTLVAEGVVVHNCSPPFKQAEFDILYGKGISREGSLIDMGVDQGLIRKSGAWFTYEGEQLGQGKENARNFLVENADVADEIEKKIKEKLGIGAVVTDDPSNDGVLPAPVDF
The experiment can be described thus: Fluorescence Cell-Free Homogeneous Dose Retest to Identify Inhibitors of RecA-Intein Splicing Activity. [Related pubchem assays (depositor defined):AID2097, AID2223, AID489010, AID492950]. The class given is functional.

The target of experiment [8] is T2, Replicative DNA helicase DnaB (Mycobacterium tuberculosis, UniProt P9WMR3).
T2 sequence (P9WMR3 whole entry): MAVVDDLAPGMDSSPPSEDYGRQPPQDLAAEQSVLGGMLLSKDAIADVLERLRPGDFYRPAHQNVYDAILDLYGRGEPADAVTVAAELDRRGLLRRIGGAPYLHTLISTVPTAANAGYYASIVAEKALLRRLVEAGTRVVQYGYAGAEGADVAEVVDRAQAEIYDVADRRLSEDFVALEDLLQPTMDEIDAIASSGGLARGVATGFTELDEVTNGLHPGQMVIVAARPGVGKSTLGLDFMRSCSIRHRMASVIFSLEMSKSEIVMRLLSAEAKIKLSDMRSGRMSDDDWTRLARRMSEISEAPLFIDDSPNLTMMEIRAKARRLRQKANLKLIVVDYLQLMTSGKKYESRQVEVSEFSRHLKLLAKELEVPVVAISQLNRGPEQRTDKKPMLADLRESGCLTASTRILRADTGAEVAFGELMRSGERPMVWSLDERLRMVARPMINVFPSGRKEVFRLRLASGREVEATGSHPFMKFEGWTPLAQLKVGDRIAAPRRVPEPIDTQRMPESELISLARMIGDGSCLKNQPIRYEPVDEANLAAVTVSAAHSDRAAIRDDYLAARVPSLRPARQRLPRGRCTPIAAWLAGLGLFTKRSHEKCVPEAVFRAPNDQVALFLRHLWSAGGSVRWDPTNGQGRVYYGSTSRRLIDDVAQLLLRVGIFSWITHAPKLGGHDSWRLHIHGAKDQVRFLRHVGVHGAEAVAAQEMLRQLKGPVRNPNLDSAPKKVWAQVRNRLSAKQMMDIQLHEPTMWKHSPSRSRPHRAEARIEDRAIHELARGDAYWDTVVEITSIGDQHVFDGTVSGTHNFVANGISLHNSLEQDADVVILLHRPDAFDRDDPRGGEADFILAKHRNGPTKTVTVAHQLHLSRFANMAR
Description: DnaB intein splicing inhibitors, dose response, biochemical, cell-free fluorescence (AID 449749). In kind it is functional.

Experiment [9] in a line: DRD fibroblast viability loss – cell-based, non-viral oncogenic, luminescence, dose response (AID 1934). As to conditions: Homo sapiens. In kind it is functional.
The nature of experiment [10]: Luminescence Cell-Based Dose Response HTS to Identify Inhibitors of 5'UTR Stem-Loop Driven Prion Protein mRNA Translation in H4 Neuroglioblastoma Cells. [Related pubchem assays: 1827 (Project Summary), 1813 (Primary HTS)]. The class given is functional.
The test system of experiment [11] is BJ. The experiment can be described thus: BJ-TERT fibroblast viability loss – cell-based, RAS-independent, luminescence, dose response (AID 1933). In kind it is functional. Conditions: Homo sapiens.
Experiment [12] deals with BJ. Description: cells. The class given is functional, cell-based. As to conditions: Homo sapiens.
Experiment [13] relates to BJ. The experiment can be described thus: growth inhibition of engineered Ras-driven BJ cells – cell-based, alamar blue fluorescence, cherrypicked samples, dose response (AID 2631).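 Further: confirmatory dose-response assay in RAS-dependent BJ fibroblasts engineered with TERT, LT and ST, with cytotoxicity read by fluorescence.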 In kind it is functional. As to conditions: Homo sapiens.
Experiment [14] can be described thus: HEK-293T viability loss after treatment – luminescence, T-cell screen hits, cytotoxicity control for TCR NF-kB inhibitor project, dose response (AID 489026).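 Further: cells exposed to compound about 14 hours before the viability readout.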 The class given is functional, cell-based.
The target of experiment [15] is E3 ubiquitin-protein ligase Mdm2/Protein Mdm4 (Homo sapiens, UniProt O15151+Q00987). The experiment can be described thus: disruption of Mdm2/MdmX protein binding – luminescence detection, dose response (AID 504593). The class given is functional.
Chain of E3 ubiquitin-protein ligase Mdm2/Protein Mdm4 (Q00987 whole entry): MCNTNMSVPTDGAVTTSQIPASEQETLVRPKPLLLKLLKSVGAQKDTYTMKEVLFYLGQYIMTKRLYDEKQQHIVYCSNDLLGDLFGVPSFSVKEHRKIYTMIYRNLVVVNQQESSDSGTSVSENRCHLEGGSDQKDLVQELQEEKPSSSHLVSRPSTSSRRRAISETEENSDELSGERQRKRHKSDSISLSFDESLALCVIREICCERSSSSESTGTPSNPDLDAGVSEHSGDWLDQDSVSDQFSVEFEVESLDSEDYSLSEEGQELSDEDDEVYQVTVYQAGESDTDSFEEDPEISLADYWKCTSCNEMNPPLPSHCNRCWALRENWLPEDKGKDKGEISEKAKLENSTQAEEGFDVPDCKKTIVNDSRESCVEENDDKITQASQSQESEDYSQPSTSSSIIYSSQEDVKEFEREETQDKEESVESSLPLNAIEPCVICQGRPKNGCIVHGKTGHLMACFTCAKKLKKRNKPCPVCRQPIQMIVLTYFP
Chain of E3 ubiquitin-protein ligase Mdm2/Protein Mdm4 (O15151 whole entry): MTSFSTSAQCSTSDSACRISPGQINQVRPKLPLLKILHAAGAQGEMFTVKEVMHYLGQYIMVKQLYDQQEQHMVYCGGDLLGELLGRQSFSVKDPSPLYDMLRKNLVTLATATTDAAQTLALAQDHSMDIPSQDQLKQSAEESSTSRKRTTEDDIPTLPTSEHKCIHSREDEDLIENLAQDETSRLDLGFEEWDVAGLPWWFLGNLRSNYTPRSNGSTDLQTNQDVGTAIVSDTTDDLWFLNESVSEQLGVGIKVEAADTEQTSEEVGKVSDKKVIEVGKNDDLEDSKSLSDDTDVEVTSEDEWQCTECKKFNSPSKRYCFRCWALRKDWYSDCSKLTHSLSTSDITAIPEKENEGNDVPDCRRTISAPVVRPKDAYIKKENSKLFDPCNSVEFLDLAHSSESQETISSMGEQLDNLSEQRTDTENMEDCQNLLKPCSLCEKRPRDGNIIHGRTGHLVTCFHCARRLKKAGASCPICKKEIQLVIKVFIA
The test system of experiment [16] is BJ. The experiment can be described thus: BJ-TERT-LT-ST fibroblast viability loss – cell-based, RAS-independent, luminescence, dose response (AID 1935).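 Further: BJ fibroblasts immortalized with TERT plus LT and ST oncogenes.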 In kind it is functional. As to conditions: Homo sapiens.
Experiment [17] deals with Integrin alpha-4 (Homo sapiens, UniProt P13612). Description: allosteric modulators of alpha4 integrin VLA-4 – cell-based, LIBS antibody binding, flow cytometry, SAR follow-up (AID 488791). In kind it is functional. (In general: Flow cytometry measures light scatter and fluorescence of single cells or particles in a stream.)
Experiment [18] deals with Ion channel NompC (Danio rerio, UniProt Q7T1G6). Description: Dose response cell-based high-throughput screening assay for agonists of the transient receptor potential channel N1 (TRPN1). [Related pubchem assays (depositor defined):AID1424, AID1448]. In kind it is functional.
Chain of Ion channel NompC (Q7T1G6 whole entry): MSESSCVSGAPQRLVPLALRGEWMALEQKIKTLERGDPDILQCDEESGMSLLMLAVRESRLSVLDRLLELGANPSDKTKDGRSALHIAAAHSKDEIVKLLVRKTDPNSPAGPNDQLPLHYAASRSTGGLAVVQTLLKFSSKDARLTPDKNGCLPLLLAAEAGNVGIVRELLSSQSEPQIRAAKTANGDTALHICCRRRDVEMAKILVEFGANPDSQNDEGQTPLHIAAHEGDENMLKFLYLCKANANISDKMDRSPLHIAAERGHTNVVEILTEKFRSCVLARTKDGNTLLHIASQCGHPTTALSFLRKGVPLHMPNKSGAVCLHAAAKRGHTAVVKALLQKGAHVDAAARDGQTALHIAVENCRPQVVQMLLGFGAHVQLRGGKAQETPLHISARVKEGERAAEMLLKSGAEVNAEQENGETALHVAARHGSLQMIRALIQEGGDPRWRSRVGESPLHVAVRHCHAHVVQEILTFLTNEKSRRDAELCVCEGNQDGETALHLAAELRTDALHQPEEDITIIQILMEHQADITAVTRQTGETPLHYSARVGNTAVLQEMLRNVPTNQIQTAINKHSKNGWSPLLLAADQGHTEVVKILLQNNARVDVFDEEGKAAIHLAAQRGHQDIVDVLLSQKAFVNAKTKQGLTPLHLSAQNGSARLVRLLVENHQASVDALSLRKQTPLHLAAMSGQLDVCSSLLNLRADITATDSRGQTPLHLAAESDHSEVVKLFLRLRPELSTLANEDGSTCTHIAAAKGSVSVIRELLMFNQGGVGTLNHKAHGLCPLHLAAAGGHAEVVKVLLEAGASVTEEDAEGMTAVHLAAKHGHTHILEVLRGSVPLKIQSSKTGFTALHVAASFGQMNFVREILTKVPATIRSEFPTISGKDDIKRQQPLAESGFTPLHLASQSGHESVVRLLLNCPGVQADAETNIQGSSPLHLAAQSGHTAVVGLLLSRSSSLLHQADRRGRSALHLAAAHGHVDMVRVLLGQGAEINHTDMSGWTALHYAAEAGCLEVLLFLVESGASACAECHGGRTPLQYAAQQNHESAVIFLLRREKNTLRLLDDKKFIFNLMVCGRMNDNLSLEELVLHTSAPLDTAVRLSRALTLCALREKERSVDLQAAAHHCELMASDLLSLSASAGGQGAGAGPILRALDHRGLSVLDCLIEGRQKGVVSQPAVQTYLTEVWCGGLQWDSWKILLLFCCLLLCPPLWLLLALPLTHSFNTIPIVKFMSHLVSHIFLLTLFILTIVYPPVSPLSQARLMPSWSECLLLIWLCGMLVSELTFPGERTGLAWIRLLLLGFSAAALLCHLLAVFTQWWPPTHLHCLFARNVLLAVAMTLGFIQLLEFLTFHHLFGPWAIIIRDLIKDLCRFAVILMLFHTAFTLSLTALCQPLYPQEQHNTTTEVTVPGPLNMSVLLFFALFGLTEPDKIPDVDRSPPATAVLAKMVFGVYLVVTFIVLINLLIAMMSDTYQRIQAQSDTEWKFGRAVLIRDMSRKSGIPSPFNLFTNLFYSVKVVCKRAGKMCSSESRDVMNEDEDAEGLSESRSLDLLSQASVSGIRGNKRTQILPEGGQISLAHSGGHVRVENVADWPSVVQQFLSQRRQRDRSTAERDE
The subject of experiment [19] is Vero. The experiment can be described thus: cells. The class given is functional. Conditions: Chlorocebus sabaeus.
In experiment [20] the target is T3, Corticotropin-releasing factor receptor 2/Corticotropin-releasing factor-binding protein (Homo sapiens, UniProt P24387+Q13324).
T3 sequence (Q13324 whole entry): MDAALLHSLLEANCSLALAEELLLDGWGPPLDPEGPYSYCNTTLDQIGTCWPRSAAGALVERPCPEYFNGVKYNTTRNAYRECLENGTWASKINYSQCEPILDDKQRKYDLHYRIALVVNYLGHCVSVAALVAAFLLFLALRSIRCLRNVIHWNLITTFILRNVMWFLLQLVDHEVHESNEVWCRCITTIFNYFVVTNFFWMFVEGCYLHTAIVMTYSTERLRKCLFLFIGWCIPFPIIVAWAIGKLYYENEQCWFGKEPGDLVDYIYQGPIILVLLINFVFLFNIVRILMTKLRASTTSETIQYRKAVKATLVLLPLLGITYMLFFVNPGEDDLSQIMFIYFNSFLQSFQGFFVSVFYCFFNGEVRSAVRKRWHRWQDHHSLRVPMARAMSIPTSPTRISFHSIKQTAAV
T3 sequence (P24387 whole entry): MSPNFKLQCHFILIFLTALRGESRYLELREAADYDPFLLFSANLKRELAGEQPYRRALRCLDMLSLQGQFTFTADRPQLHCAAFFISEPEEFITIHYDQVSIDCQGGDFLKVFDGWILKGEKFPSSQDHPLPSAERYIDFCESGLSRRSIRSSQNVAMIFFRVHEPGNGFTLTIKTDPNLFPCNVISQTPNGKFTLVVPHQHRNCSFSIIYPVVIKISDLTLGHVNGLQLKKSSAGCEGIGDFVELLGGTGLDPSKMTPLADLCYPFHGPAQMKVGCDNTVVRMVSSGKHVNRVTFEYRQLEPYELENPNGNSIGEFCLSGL
Description: activators of CRF receptor 2 with binding protein – uHTS hits, confirmation (AID 602473). The class given is functional. Conditions: read-out: EC50_Mean.

Experiment [21] deals with Mucolipin-3 (Homo sapiens, UniProt Q8TDD5). The experiment can be described thus: Fluorescence counterscreen assay for […] agonists: dose response cell-based high-throughput screening assay to identify agonists of the transient receptor potential channel ML3 (TRPML3). [Related pubchem assays: 1424, 1448 ]. The class given is functional.
Chain of Mucolipin-3 (Q8TDD5 whole entry): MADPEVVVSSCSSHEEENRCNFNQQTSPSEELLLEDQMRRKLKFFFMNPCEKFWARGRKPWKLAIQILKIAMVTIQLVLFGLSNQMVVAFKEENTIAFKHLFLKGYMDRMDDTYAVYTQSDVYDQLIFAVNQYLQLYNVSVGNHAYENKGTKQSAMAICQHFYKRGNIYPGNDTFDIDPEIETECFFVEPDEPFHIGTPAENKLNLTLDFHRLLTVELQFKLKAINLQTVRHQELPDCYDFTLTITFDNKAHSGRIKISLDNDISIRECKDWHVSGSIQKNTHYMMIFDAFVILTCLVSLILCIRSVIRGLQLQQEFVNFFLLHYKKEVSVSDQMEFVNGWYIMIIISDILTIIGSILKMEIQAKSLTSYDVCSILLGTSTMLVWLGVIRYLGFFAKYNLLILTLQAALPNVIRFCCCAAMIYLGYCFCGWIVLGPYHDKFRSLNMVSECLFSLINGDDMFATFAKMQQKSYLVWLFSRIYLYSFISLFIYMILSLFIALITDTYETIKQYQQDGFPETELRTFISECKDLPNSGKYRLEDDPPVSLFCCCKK

Chain of Sphingosine 1-phosphate receptor 4 (O95977 whole entry): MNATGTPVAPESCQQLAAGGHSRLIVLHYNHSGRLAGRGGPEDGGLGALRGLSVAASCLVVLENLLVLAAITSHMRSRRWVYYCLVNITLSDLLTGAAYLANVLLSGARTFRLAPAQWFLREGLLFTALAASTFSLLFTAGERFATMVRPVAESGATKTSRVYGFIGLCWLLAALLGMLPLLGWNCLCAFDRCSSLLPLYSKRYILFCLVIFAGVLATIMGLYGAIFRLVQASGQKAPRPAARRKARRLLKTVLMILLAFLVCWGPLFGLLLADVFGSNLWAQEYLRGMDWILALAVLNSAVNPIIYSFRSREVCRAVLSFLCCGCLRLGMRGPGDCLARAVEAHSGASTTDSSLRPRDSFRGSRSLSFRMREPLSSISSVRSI

Consider `Cc1nn(Cc2ccccc2)c(Cl)c1C(=O)OC(C)C(=O)Nc1ccc(F)cc1Cl` (stereo unspecified), for which the IC50 in experiment [1] was 5.89 µM (active); in experiment [2], > 111 µM (not active). Further, the EC50 in experiment [3] was > 50 µM (inactive).
In the case of `Cn1nc([N+](=O)[O-])nc1Sc1nnc(-c2ccccc2)o1`, the EC50 in experiment [4] was 10.2 µM (active); in [5] it was > 120 µM (not active); in [7] it was 10.9 µM (active); in experiment [9], 11.1 µM (active); in experiment [10] it was > 120 µM (not active); in experiment [11], 3.15 µM (active). The EC50 in [12] was 2.52 µM (active); in experiment [13], 0.556 µM (active); in experiment [16], 43.9 µM (inconclusive). Further, the concentration for half-maximal inhibition (IC50) in experiment [6] was 0.438 µM (active); in [14], > 80 µM (inactive); in experiment [15] it was 6.19 µM (active). Further, the AC50 in experiment [8] was 40.3 µM (active).
Take `Cc1ccc(NC(=O)c2cc(N3C(=O)CCC3=O)ccc2N2CCOCC2)cc1Cl`: the EC50 in experiment [17] is 23.3 µM (active).
As to `Cc1ccc(S(=O)(=O)Nc2ccc(NC(=O)c3c(F)c(F)c(F)c(F)c3F)cc2)cc1`, the EC50 in experiment [18] is > 29.9 µM (inactive); in [20], 5.66 µM (active); in experiment [21] it was > 29.9 µM (not active). Besides, the CC50 in experiment [19] is 23 µM (active).
